{"source": "patent EP0232893A2", "about": "“Antibiotics of the streptogramine type, a microbiological process for their preparation and their use as medicaments and food additives” (HOECHST AKTIENGESELLSCHAFT, priority 1986, dated 1987)", "experiment": "Feeding trials in animals, growth promotion", "assay_type": "in vivo, Mastgeflügel, Schweinen, Mastrindern, Schafen und Kaninchen", "settings": "e.g. fattening poultry, pigs, fattening cattle, sheep, rabbits", "source_text": "Dies gilt auch für die einzelnen Komponenten, insbesondere für das Neoviridogrisein IV, für das ein wachstumsfördernder -Effekt bisher nicht beschrieben war. Auch die Legeleistung von Geflügel, insbesondere das Eigewicht und die Milchleistung von Milchkühen, -schafen und -ziegen wird durch den Antibiotikakomplex oder seine einzelnen Komponenten positiv beeinflußt.\nZur Erzielung des Effekts verwendet man Konzentrationen von 2 - 100 ppm, vorzugsweise 2 - 50 ppm, insbesondere 5 - 20 ppm, bezogen auf Alleinfutter. Entsprechend höher sind die Konzentrationen, wenn die Antibiotika als Zusatz zu Beifutter verabreicht werden.", "note": "*1 amine or outer side, *2 acyl side, *3 side chain or, on linkers, in order; H or OH if unused. Where a SMILES comes first, the peptide text is derived from it. Bridges are numbered along the chain shown (N, C = ends). [ ]: non-standard residue; d: D form. The star is where a group is joined. X1 = CC(C)[C@H](C)[C@@H](C(=O)[*:2])N(C)[*:1]; d(cisHyp) = O=C(O)[C@H]1C[C@@H](O)CN1; Picolinoyl(3-OH) = O=C(c1ncccc1O)*; NMePhg = CN[C@H](C(=O)O)c1ccccc1; Sar = CNCC(=O)O", "data": [{"smiles": "CC(C)C[C@H]1NC(=O)[C@@H](NC(=O)c2ncccc2O)[C@@H](C)OC(=O)[C@H](c2ccccc2)N(C)C(=O)[C@H](C)NC(=O)[C@H]([C@@H](C)C(C)C)N(C)C(=O)CN(C)C(=O)[C@H]2C[C@@H](O)CN2C1=O", "note": "[Neoviridogrisein IV] ({Picolinoyl(3-OH)}-T[dL][d(cisHyp)][Sar][X1]A[NMePhg]; ester 1-C)", "values": [{"measurement": "wachstumsfördernde Wirkung", "result": "ausgeprägte wachstumsfördernde Wirkung"}]}]}
